{
  "source": "patent US12629410B2",
  "about": "“Multi-antigenic peptide mimics of gonococcal lipo-oligosaccharide (LOS) epitopes” (priority 2019, dated 2026)",
  "key": {"[1]": {"test_system": "N. gonorrhoeae strain 15253", "assay": "Serum bactericidal activity of antisera raised against tetra-MAP candidates", "format": "cell-based", "conditions": "post-dose 5 IgM-depleted antiserum 1:3, 17% NHS; Sigma MPL adjuvant; compared with TMCP3, TMCP4", "method": "See Tables 1A-1K for a description of peptides. Post-dose 5 mouse anti-serum (IgM depleted) was tested against N. gonorrhoeae strain 15253 at a final dilution of 1:3 in the presence of 17% normal human serum (NHS) as the complement source. Y-axis, % killing ([CFU at t0−CFU at t30/CFU at t0]×100).\n(§1) Serum bactericidal assays were performed. Bacteria that had been harvested from an overnight culture on chocolate agar plates were repassaged onto fresh chocolate agar and allowed to grow for 6 h at 37° C. in an atmosphere containing 5% CO2. Bacteria were then suspended in HBSS containing 1 mM MgCl2 and 0.15 mM CaCl2) (HBSS++) for use in serum bactericidal assays. Briefly, about 2000 colony forming units (CFUs) of N. gonorrhoeae FA090 were incubated with serial dilutions of immune mouse sera (heat-inactivated and IgM-depleted) in the presence or absence of 20% normal human serum (NHS) as a source of human complement. Serum bactericidal assays with strain MS11 were performed with IgG and IgM depleted NHS (Human complement; Pel-Freez) because this strain is susceptible to killing by NHS. Final volumes of bactericidal reaction mixtures were 150 μl. Aliquots of 25-μl reaction mixtures were plated onto chocolate agar in duplicate at the beginning of the assay (to) and again after incubation at 37° C. for 30 min (t30). Survival was calculated as the number of viable colonies at t30 relative to t0."}, "[2]": {"test_system": "N. gonorrhoeae FA1090", "assay": "Serum bactericidal assay, immune mouse sera plus human complement", "format": "cell-based", "conditions": "for immune sera showing >50% killing: IgM-depleted sera at 1:30 (3.3%); for immune sera showing <50% survival (>50% killing): intact sera at 3.3% (1:30)", "method": "[…] Sera from mice diluted 1:1 in PBS was mixed with anti-mouse IgM agarose (Sigma; binding capacity ≥0.4 mg/ml) (1 volume of packed agarose to 1 volume of serum diluted 1:1) in a 2.0 ml microspin filter column (Costar) with a pore size of 0.22 μM) for 15 min at 22° C. Filter-sterilized IgM depleted sera were collected by centrifugation of the mixture at 1000 g for 2 min and heat-inactivated (56° C. for 30 min) to eliminate intrinsic complement activity in mouse serum prior to use in serum bactericidal assays where human complement was substituted.\nas §1"}, "[3]": {"test_system": "15253 ΔlgtG LOS", "assay": "ELISA of immune sera against 2C7-negative LOS (specificity)", "format": "in vivo, N. gonorrhoeae", "conditions": "sera of mice immunized with TMCP2 + GLA-SE", "method": "Microtiter wells were coated with LOS purified from 15253 or 15253 ΔlgtG (80 μg/ml) in PBS as described previously. Serial dilutions of immune sera were dispensed into wells and bound anti-LOS Ab was disclosed with anti-mouse IgG conjugated to alkaline phosphatase. A standard curve for mouse IgG was generated by coating wells with anti-mouse IgG (Sigma) and pure mouse IgG (Sigma) also as described previously."}},
  "note": "“And” between values parts separate entries of the source, which are not always exact repeats. Identical values can stand only once. “Also recorded” adds a separate entry of the source. Bridges are numbered along the chain shown (N, C = ends).",
  "data": [
    {"substance": "[(CH2-CO-GPIPVLDENGLFAPGPC)-K-OH]4 ({CH2CO}-GPIPVLDENGLFAPGPCK-OH; thioether N-17; also: tetrameric MAP) [TMCP2]", "values": [
      {"measurement": "complement-dependent bactericidal activity of antisera", "setting": "[1]", "value": "maximal"},
      {"measurement": "killing of FA1090, one serum sample", "setting": "[2]; IgM-depleted post-dose 3 serum, 1:6 (16.7%), 50 μg/dose group", "value": 47, "unit": "%"},
      {"measurement": "immune sera showing >50% killing", "setting": "[2]; 100 μg/dose group", "value": "Three of five"},
      {"measurement": "immune sera showing >50% killing", "setting": "[2]; 200 μg/dose group", "value": "three of four"},
      {"measurement": "Survival in intact immune serum", "setting": "[2]; Table 4, TMCP2 200 μg/dose + GLA-SE, immune serum 16.7% (1/6), 16.7% NHS", "value": "0.00% and 6.19%"},
      {"measurement": "killing of FA1090 by intact immune sera, all sera", "setting": "[2]; final dilution 1:6 (16.7% immune serum), TMCP2 50, 100, 200 μg/dose + GLA-SE", "value": "> 50", "unit": "%"},
      {"measurement": "immune sera showing <50% survival (>50% killing)", "setting": "[2]; 50 μg/dose group", "value": "Four of 5"},
      {"measurement": "immune sera showing <50% survival (>50% killing)", "setting": "[2]; 100 μg/dose group", "value": "3 of 5"},
      {"measurement": "immune sera showing <50% survival (>50% killing)", "setting": "[2]; 200 μg/dose group", "value": "3 of 4"},
      {"measurement": "IgG reactivity of immune sera with 15253 ΔlgtG LOS", "setting": "[3]", "value": "non-reactivity; also recorded: no IgG binding"}
    ]}
  ]
}
